Molecules are shown by their SMILES.

The term melting point denotes the temperature of the solid-liquid transition. In turn, `CC(=O)N1[C@@H]2[C@@H]3OC(C)(C)O[C@@H]3C(Br)=C[C@@H]21` displayed a melting point of 128 °C.

`CCOC(=O)C1=C[C@@H](OC(CC)CC)[C@H](NC(C)=O)[C@@H]2OC(C)(C)O[C@H]12`: the melting point was 112 to 115 °C.

Molecule `CCOC(=O)C1=CC=C[C@H](O)[C@@H]1O` came in with a melting point of 48 °C.

In turn, `CCOC(=O)[C@@]12C=C[C@H]([C@@H]3OC(C)(C)O[C@@H]31)N(C(C)=O)O2` came in with a melting point of 89 to 90 °C.

Take `CCOC(=O)C1C[C@@H](O)[C@@H](NC(C)=O)[C@@H]2OC(C)(C)O[C@H]12` (stereo partly drawn): the melting point was 156 to 158 °C.

`CCOC(=O)C1C[C@@H](OS(C)(=O)=O)[C@@H](NC(C)=O)[C@@H]2OC(C)(C)O[C@H]12` (stereo partly drawn) displayed a melting point of 101 to 102 °C.

Turning to `CCOC(=O)C1=C[C@@H](OS(C)(=O)=O)[C@@H](NC(C)=O)[C@@H]2OC(C)(C)O[C@H]12`, the melting point lay within 163 to 165 °C.

Molecule `Cc1ccc(S(=O)(=O)N[C@H]2[C@@H]3OC(C)(C)O[C@@H]3C(Br)=C[C@H]2N=[N+]=[N-])cc1` gave a melting point of 119 to 120 °C.

In turn, `Cc1ccc(S(=O)(=O)N[C@H]2[C@@H]3OC(C)(C)O[C@@H]3C(Br)=C[C@H]2NC(=O)OC(C)(C)C)cc1` registered a melting point of 153 to 154 °C.

`CCOC(=O)C1=C[C@@H]2[C@H]([C@@H]3OC(C)(C)O[C@H]13)N2S(=O)(=O)c1ccc(C)cc1` (stereo partly drawn) registered a melting point of 106 to 107 °C.

Take `CC(=O)N[C@H]1C=C(Br)[C@H]2OC(C)(C)O[C@H]2[C@@H]1Br`: the melting point turned out to be 181 °C.

Turning to `CCOC(=O)C1=C[C@@H](OC(CC)CC)[C@H](NC(C)=O)[C@H](O)[C@@H]1O` (stereo in doubt), the melting point came out at 154 °C.

For the origin of these results see patent US20110201577A1 (published 2011).
